In one data set the test system is P388 leukemia. The data set can be described thus: In vivo antitumor activity against P388 leukemia (Table 8). Particulars: P388 leukemia in mice.
The nature of the next data set: Solubility. In kind it is physicochemical.
The test system of data set [1] is RNA biosynthesis in L1210 leukemia cells. The experiment in a line: Inhibition of macromolecule biosynthesis, RNA (Table 15). In kind it is cell-based, murine. Particulars: Mus musculus, labeled precursor, 15 min + 60 min, 37° C., read-out: IC50, RNA synthesis. On the procedure:
(§1) Inhibitory effects of the above compounds on macromolecule (DNA, RNA and protein) biosynthesis were determined in cultured L1210 murine leukemia cells. The cells (5×10^5 cells/ml) were incubated with the test materials at 37° C. for 15 minutes and then further incubated for 60 minutes after the addition of labeled precursor, ^3 H-thymidine, ^14 C-uridine or ^3 H-leucine into the cultured mixture. After washing with chilled 5% trichloroacetic acid solution, the radioactivity incorporated into the acid-insoluble fraction of the cells was determined with a liquid scintillation counter.

Data set [2] concerns B16-F10 (murine melanoma) cells. The experiment in a line: In vitro cytotoxicity (Table 14). Particulars: Mus musculus; B16-F10, 72 hours, neutral red; read-out: IC50. The format is cell-based.
Method: (§2) B16-F10 (murine melanoma), HCT-116 (human colon carcinoma), A549 (human lung carcinoma) and A549/VP29 (an etoposide-resistant subline of A549) were grown in Eagle's MEM (Nissui) supplemented with FCS (fetal calf serum, 10%) and non-essential amino acids (B16-F10), or in McCoy's 5A medium (Gibco) with FCS (10%), essential and non-essential amino acids, vitamins and antibiotics (HCT-116 and both of A549) at 37° C. under a humidified atmosphere in a 5% CO2 incubator. Exponentially growing B16-F10, HCT-116 and A549 cells were harvested, counted and suspended in the culture medium at 1.5×10^4, 3×10^4 and 3×10^4 cells/ml, respectively. After planting 180 μl of cell suspension into wells of a 96-well microtiter plate on day 0, the test materials (20 μl) were added on day 1 and the plates were incubated for 72 hours. The cytotoxic activity was colorimetrically determined at 540 nm after staining viable cells with neutral red solution.
Data set [3] has as its system protein biosynthesis in L1210 leukemia cells. The experiment in a line: Inhibition of macromolecule biosynthesis, protein (Table 15). In kind it is cell-based, murine. Particulars: Mus musculus, labeled precursor, 15 min + 60 min, 37° C., read-out: IC50, protein synthesis. The method, then:
as §1

The test system of data set [4] is A549 (human lung carcinoma) cells. The experiment in a line: In vitro cytotoxicity (Table 14). The format is cell-based. Particulars: A549, 72 hours, neutral red, read-out: IC50.
Method: as §2
Data set [5] relates to A549/VP29 (etoposide-resistant subline of A549) cells. The data set can be described thus: In vitro cytotoxicity (Table 14).
Method: (§3) After planting 180 μl of cell suspension into wells of a 96-well microtiter plate on day 0, the test materials (20 μl) were added on day 1 and the plates were incubated for 72 hours. The cytotoxic activity was colorimetrically determined at 540 nm after staining viable cells with neutral red solution.
A further data set deals with fungi. The experiment in a line: In vitro antifungal activity, overall statement. Particulars: various fungi.
Data set [6] concerns murine and human tumor cell lines. The experiment in a line: In vitro cytotoxicity, overall statement. Particulars: murine and human tumor cell lines.
Method: as §3
Data set [7] has as its system DNA biosynthesis in L1210 leukemia cells. The experiment in a line: Inhibition of macromolecule biosynthesis, DNA (Table 15). The format is cell-based, murine. The method, then: as §1
Data set [8] deals with HCT-116 (human colon carcinoma) cells. The experiment in a line: In vitro cytotoxicity (Table 14). The format is cell-based. Particulars: HCT-116, 72 hours, neutral red, read-out: IC50.
Method: as §2

≈ marks a conversion by molar mass, not a printed value. Some results are limits rather than exact numbers.

One may read the IC50 as the concentration that gives 50% inhibition.

Method for fungi: In vitro antifungal activity was determined against various fungi by the serial agar dilution method. Sabouraud dextrose agar (pH 7.0) was used for the experiment. The inoculum size was adjusted to 10^6 CFU/ml. After incubation at 28° C. for 40 hours, the minimum inhibitory concentration (MIC) was examined.

As for `CCCCC/C=C/C=C\C=C/C(O)C(C)C(O)C/C=C/C1OC(=O)C=CC1O` (stereo not shown) [BU-3285T desulfate], the “in vivo antitumor activity” value in the data set on P388 leukemia is “not active”. The solubility in acetone entry in the data set “Solubility” (acetone) is “soluble”. In addition, the “solubility in carbon tetrachloride” value in the data set “Solubility” (carbon tetrachloride) is “insoluble”. In addition, the “solubility in dimethyl sulfoxide” value in the data set “Solubility” (dimethyl sulfoxide) is recorded as “soluble”. In addition, the solubility in ethanol result in the data set “Solubility” (ethanol) is on record as “soluble”. Further, the solubility in methanol entry in “Solubility” (methanol) was “soluble”. Further, the solubility in n-hexane entry in “Solubility” (n-hexane) is listed as “insoluble”. Besides, the solubility in water entry in the data set “Solubility” (water) is listed as “slightly soluble”. Besides, the IC50 is 6.1 mg/L in data set [1]; 14 mg/L (≈ 35.8 µM) in [2]; 8.1 mg/L in [3]; 13 mg/L (≈ 33.3 µM) in data set [4]; 15 mg/L (≈ 38.4 µM) in data set [5] (A549/VP29, 72 hours, neutral red); more than 100 mg/L in [7] (Mus musculus, L1210, labeled precursor, 15 min + 60 min, 37° C., read-out: IC50, DNA synthesis). For the same compound, the IC50 in data set [8] was determined as 5.5 mg/L (≈ 14.1 µM). The “cytotoxicity against resistant A549/VP29 compared with parent cell line” value in data set [5] (vs A549 parent) was “almost the same cytotoxicity”. The “antifungal activity in vitro” value with fungi was “no activity against fungi in vitro”. Further, the cytotoxicity in vitro entry in [6] was “quite active”. In data set [7] (at 100 μg/ml, the highest concentration tested), the “inhibitory effect on DNA synthesis” value is “no significant inhibitory effect”.
